Patent US8895562B2, “Piperazin-1-yl-trifluoromethyl-substituted-pyridines as fast dissociating dopamine 2 receptor antagonists” (Janssen Pharmaceutica NV, priority 2008, dated 2014)
Counter-ions that a name gives are not always drawn. Like-named read-outs stand apart in the source and are kept apart here.

Legend:
human D2L receptor = biological target: T1, human D2L receptor (Homo sapiens, UniProt P14416); test: Fast dissociation, indirect assay ([3H]spiperone binding after pre-incubation with compound); conditions: compound at 4 times its IC50, 1 h pre-incubation at 25° C., then 5 min with 1 nM [3H]spiperone on filter
T1 construct: expressed in transfected cells
T1 sequence (P14416 whole entry): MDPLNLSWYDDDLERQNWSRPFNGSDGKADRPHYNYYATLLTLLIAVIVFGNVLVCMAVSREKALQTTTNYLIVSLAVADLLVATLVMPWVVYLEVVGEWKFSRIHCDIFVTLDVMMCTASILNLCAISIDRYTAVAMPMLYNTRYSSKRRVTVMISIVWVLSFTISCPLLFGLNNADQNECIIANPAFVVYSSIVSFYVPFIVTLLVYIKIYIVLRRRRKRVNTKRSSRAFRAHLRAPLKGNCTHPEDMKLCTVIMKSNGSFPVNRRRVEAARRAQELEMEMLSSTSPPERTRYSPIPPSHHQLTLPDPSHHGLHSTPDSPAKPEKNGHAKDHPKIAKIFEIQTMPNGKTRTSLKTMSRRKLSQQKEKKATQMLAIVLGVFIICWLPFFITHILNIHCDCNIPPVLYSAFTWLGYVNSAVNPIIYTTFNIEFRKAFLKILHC
Method: Compounds were first screened for their D2 affinity in a binding assay using [^3H]spiperone and human D2L receptor cell membranes.
Compounds at a concentration of 4 times their IC50 were first incubated for one hour with human D2L receptor cell membranes in a volume of 2 ml at 25° C., then filtered over glass-fibre filter under suction using a 40 well multividor. Immediately after, the vacuum was released. 0.4 ml of pre-warmed buffer (25° C.) containing 1 nM [^3H]spiperone was added on the filter for 5 minutes. The incubation was stopped by initiating the vacuum and immediate rinsing with 2×5 ml of ice-cold buffer. The filter-bound radioactivity was measured in a liquid scintillation spectrometer. The principle of the assay is based on the assumption that the faster a compound dissociates from the D2 receptor, the faster [^3H]spiperone binds to the D2 receptor.

[1] = biological target: T2, human Dopamine D3 receptor (Homo sapiens, UniProt P35462); test: In vitro binding affinity for human D3 receptor ([125I]iodosulpride)
T2 construct: expressed in transfected cells; host or cells: CHO cells (membranes)
T2 sequence (P35462 whole entry): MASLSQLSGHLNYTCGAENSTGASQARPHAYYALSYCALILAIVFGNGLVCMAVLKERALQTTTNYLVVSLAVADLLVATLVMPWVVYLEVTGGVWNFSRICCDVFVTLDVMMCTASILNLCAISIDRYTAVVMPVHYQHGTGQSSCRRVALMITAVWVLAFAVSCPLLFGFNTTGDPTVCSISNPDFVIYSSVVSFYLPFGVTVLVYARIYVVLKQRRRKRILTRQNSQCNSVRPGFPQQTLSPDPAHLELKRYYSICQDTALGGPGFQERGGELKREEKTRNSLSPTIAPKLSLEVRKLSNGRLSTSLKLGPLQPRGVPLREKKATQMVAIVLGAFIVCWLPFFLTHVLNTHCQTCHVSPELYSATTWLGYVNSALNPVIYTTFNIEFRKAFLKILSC
Method: Frozen membranes of human Dopamine D3 receptor-transfected CHO cells were thawed, briefly homogenized using an Ultra-Turrax T25 homogeniser and diluted in 50 mM Tris-HCl assay buffer containing 120 mM NaCl, 2 mM CaCl2, 1 mM MgCl2, 5 mM KCl and 0.1% BSA (adjusted to pH 7.4 with HCl) to an appropriate protein concentration optimized for specific and non-specific binding. Radioligand [^125I]Iodosulpride (Amersham, specific activity ˜2000 Ci/mmol) was diluted in assay buffer at a concentration of 2 nM. Prepared radioligand (20 μl), along with 40 μl of either the 10% DMSO control, Risperidone (10^−6M final concentration), or compound of interest, was then incubated with 70 μl of the prepared membrane solution and 70 μl of WGA coated PVT beads (0.25 mg/well final concentration). After shaking for 24 hours at RT plates were counted in a Topcount™ scintillation counter. Percentage specific binding and competition binding curves were calculated using S-Plus software (Insightful).

[2] = biological target: T3, human Dopamine D2L receptor (Homo sapiens, UniProt P14416); test: In vitro binding affinity for human D2L receptor ([3H]spiperone); conditions: membranes of human D2L receptor-transfected CHO cells, read-out: D2L binding pIC50 (converted)
T3 construct: expressed in transfected cells; host or cells: CHO cells (membranes)
T3 sequence (P14416 whole entry): as the sequence (P14416 whole entry) above
From the text: In order to find antipsychotic compounds active against positive and negative symptoms and cognitive impairment, and having an improved safety profile (low EPS incidence and no metabolic disorders), we have screened for compounds selectively interacting with the dopamine D2 receptor and dissociating fast from this receptor, and further having affinity for the dopamine D3 receptor as well as the serotonin 5-HT-6 receptor. Compounds were first screened for their D2 affinity in a binding assay using [^3H]spiperone and human D2L receptor cell membranes.
Frozen membranes of human Dopamine D2L receptor-transfected CHO cells were thawed, briefly homogenised using an Ultra-Turrax T25 homogeniser and diluted in Tris-HCl assay buffer containing NaCl, CaCl2, MgCl2, KCl (50, 120, 2, 1, and 5 mM respectively, adjusted to pH 7.7 with HCl) to an appropriate protein concentration optimised for specific and non-specific binding. Radioligand [^3H]Spiperone (NEN, specific activity ˜70 Ci/mmol) was diluted in assay buffer at a concentration of 2 nmol/L. Prepared radioligand (50 μl), along with 50 μl of either the 10% DMSO control, Butaclamol (10^−6 mol/l final concentration), or compound of interest, was then incubated (30 min, 37° C.) with 400 μl of the prepared membrane solution. Membrane-bound activity was filtered through a Packard Filtermate harvester onto GF/B Unifilterplates and washed with ice-cold Tris-HCl buffer (50 mM; pH 7.7; 6×0.5 ml). Filters were allowed to dry before adding scintillation fluid and counting in a Topcount scintillation counter. Percentage specific bound and competition binding curves were calculated using S-Plus software (Insightful).

[3] = biological target: T4, human Serotonin 5HT6 receptor (Homo sapiens, UniProt P50406); test: In vitro binding affinity for human 5HT6 receptor ([3H]LSD)
T4 construct: expressed in transfected cells; host or cells: HEK cells (membranes)
T4 sequence (P50406 whole entry): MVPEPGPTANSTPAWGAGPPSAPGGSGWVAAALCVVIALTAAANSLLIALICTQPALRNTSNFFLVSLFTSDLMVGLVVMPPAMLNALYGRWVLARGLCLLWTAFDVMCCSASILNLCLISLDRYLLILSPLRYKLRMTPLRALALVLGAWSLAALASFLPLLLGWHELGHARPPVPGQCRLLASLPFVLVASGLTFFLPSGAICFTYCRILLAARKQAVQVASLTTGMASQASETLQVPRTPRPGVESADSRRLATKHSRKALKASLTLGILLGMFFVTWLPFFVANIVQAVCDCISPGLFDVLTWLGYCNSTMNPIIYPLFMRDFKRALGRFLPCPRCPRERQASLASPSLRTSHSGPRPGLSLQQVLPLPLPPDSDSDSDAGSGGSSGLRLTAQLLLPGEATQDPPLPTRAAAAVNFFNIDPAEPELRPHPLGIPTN
Method: Frozen membranes of human Serotonin 5HT6 receptor-transfected HEK cells were thawed, briefly homogenized using an Ultra-Turrax T25 homogeniser and diluted in 50 mM Tris-HCl assay buffer containing 10 mM MgCl2, 1 mM EDTA and 10 μM Pargyline (adjusted to pH 7.4 with HCl) to an appropriate protein concentration optimized for specific and non-specific binding. Radioligand [^3H]Lysergic acid diethylamide (Perkin Elmer, specific activity ˜80 Ci/mmol) was diluted in assay buffer at a concentration of 20 nM. Radioligand (20 μl), along with 40 μl of either the 10% DMSO control, Methiothepine (10^−5M final concentration), or compound of interest, was then incubated with 70 μl of the prepared membrane solution and 70 μl of WGA coated PVT beads (0.25 mg/well final concentration). After shaking for 24 hours at RT plates were counted in a Topcount™ scintillation counter. Percentage specific binding and competition binding curves were calculated using S-Plus software (Insightful).

[4] = membranes of human D3 receptor-transfected CHO cells, [125I]iodosulpride, read-out: D3 binding pIC50 (converted)
[5] = membranes of human 5HT6 receptor-transfected HEK cells, [3H]lysergic acid diethylamide, read-out: 5-HT6 binding pIC50 (converted)

| SMILES | D2 dissociation ([3H]spiperone binding as % of total binding capacity) (human D2L receptor) [%] | IC50 [1, 4] [µM] | IC50 [2] [µM] | IC50 [3, 5] [µM] | melting point [°C] | IC50 [1] [µM] | IC50 [3] [µM] |
| --- | --- | --- | --- | --- | --- | --- | --- |
| N#Cc1nc(N2CCNCC2)cc(-c2ccccc2)c1C(F)(F)F [Example B2, 4-Phenyl-6-piperazin-1-yl-3-trifluoromethyl-pyridine-2-carbonitrile] | 60 | 0.0107 | 0.129 | 0.00813 | – | – | – |
| COc1nc(C(F)(F)F)c(-c2ccc(F)cc2)cc1N1CCNCC1 [Example B6, 1-[5-(4-Fluoro-phenyl)-2-methoxy-6-trifluoromethyl-pyridin-3-yl]-piperazine] | – | – | 0.468 | 0.129 | – | – | – |
| COc1nc(C(F)(F)F)c(-c2ccccc2)cc1N1CCNCC1 (as salt: salt) [Example B5, 1-(2-Methoxy-5-phenyl-6-trifluoromethyl-pyridin-3-yl)-piperazine] | – | – | – | – | 184.8 | – | – |
| N#Cc1nc(N2CCNCC2)cc(-c2ccccc2)c1C(F)(F)F (as salt: salt) [Example B2, 4-Phenyl-6-piperazin-1-yl-3-trifluoromethyl-pyridine-2-carbonitrile] | – | – | – | – | 255.3 | – | – |
| COc1nc(N2CCNCC2)cc(-c2ccccc2)c1C(F)(F)F [Example B3, 1-(6-Methoxy-4-phenyl-5-trifluoromethyl-pyridin-2-yl)-piperazine] | 45 | – | 0.229 | – | – | 0.0468 | 0.0186 |
| COc1nc(C(F)(F)F)c(-c2ccc(F)cc2)cc1N1CCN(C(=O)OC(C)(C)C)CC1 [Example A16, 4-[5-(4-Fluoro-phenyl)-2-methoxy-6-trifluoromethyl-pyridin-3-yl]-piperazine-1-carboxylic acid tert-butyl ester] | 83 | 2.09 | 7.94 | 0.224 | – | – | – |
| Cc1nc(C(F)(F)F)c(-c2ccccc2)cc1N1CCNCC1 [Example B8, 1-(2-Methyl-5-phenyl-6-trifluoromethyl-pyridin-3-yl)-piperazine] | 95 | 2.09 | 4.79 | 0.17 | – | – | – |
| COc1nc(C(F)(F)F)c(-c2ccccc2)cc1N1CCNCC1 [Example B5, 1-(2-Methoxy-5-phenyl-6-trifluoromethyl-pyridin-3-yl)-piperazine] | 66 | – | 0.204 | 0.0933 | – | – | – |
| N#Cc1nc(C(F)(F)F)c(-c2ccccc2)cc1N1CCNCC1 [Example B7, 5-Phenyl-3-piperazin-1-yl-6-trifluoromethyl-pyridine-2-carbonitrile] | – | 0.372 | 3.39 | 0.309 | – | – | – |
| FC(F)(F)c1ncc(N2CCNCC2)cc1-c1ccccc1 [Example B4, 1-(5-Phenyl-6-trifluoromethyl-pyridin-3-yl)-piperazine] | 69 | – | 0.479 | 0.138 | – | 0.0339 | – |
| Fc1ccc(-c2cc(N3CCNCC3)ncc2C(F)(F)F)cc1 [Example B1, 1-[4-(4-Fluoro-phenyl)-5-trifluoromethyl-pyridin-2-yl]-piperazine] | – | – | 3.89 | 0.123 | 80.6 | – | – |
